From patent publication US20080214658A1, “Composition Comprising Isoorientin for Suppressing Histamine” (UNIGEN, INC., priority 2005, published 2008) come the findings set out here.

The assay relates to guinea pig lung mast cells. Kind of assay: Histamine release from passively sensitized (anti-OVA antibody) lung mast cells activated by OVA. The assay is classed as cell-based. The settings on record: for Histamine (%) (amount of histamine released as percentage of the total histamine content) / inhibition % of histamine release: 4 × 10^5 mast cells, added 5 min before 1.0 μg/ml OVA challenge; for inhibition % of histamine release: vs OVA alone. How it is done:
In each enzyme treatment, the lung tissues were filtered with nylon mesh and metal mesh (100 μm), and centrifuged (called as monodispersed mast cells). Pellets were suspended in 16 ml of buffer (TG buffer) containing Ca^2+, Mg^2+-free, and 0.1% gelatin, loaded to rough Percoll ([…] density), and centrifuged at 1,400 rpm for 25 minutes to give pellets. The cells were suspended again in 8 ml of TG buffer, loaded to discontinuous Percoll ([…] density), and centrifuged again at 1400 rpm for 25 minutes to afford various kinds of cell layers. Among them, mast cells were mainly present in 3rd or 4th layer, and so cells obtained from these layers were washed with TGCM buffer twice. […] Mast cells (4×10^5 cells) were treated with guinea pig IgG1 antibody (anti-OVA 1 ml/10^6 cells), reacted at 37° C. for 45 minutes, and then washed with TGCM buffer to remove anti-OVA antibody which was not bound to mast cells membrane. The cells were suspended in 1 ml of TGCM buffer, and treated with drug (testing substance) at each concentration for 5 minutes. The suspension was […] with 1.0 μg/ml OVA (ovalbumin), reacted for 10 minutes, cooled at ice, and centrifuged. After the centrifuge, histamine in supernatant was measured. […] The amount of histamine contained in each sample was calculated as percentage against the amount of histamine contained in total cells used, as follows. [formula]

A word on the IC50: it is the concentration that inhibits the measured activity by half.

`O=c1cc(-c2ccc(O)c(O)c2)oc2cc(O)c([C@@H]3O[C@H](CO)[C@@H](O)[C@H](O)[C@H]3O)c(O)c12` [Isoorientin, isoorientin]: the IC50 (Cavia porcellus, Mast cell, guinea pig lung mast cells, anti-OVA sensitized, OVA challenge, read-out: IC50 value, inhibition of histamine release in mast cells) was found to be 30 µg/mL. For the same compound, the “Histamine (%) (amount of histamine released as percentage of the total histamine content)” value by setting is: (sample 1.25 μg) 27.9 ± 2.62%; (sample 2.5 μg) 25.6 ± 1.49%; (sample 5 μg) 21.9 ± 2.01%; (sample 10 μg) 17.2 ± 1.07%. For the same compound, the “inhibition % of histamine release” value turned out to be 14% (sample 1.25 μg), 21.3% (sample 2.5 μg), 32.6% (sample 5 μg) and 47.2% (sample 10 μg).
